Results: patent publication US8067422B2, “Crystal form of phenylamino pyrimidine derivatives” (Natco Pharma Limited, priority 2008, dated 2011)

Experiments:
5310 glioma cells [1] = assay: Matrigel invasion assay (modified Boyden chamber), 5310; type: cell-based; conditions: 5310
Procedure: (§1) The in vitro invasiveness of 4910, 5310 and U87 glioma cells and MDAMB231 and ZR71 breast cancer cells in the presence of specified concentrations of compounds were assessed using a modified Boyden chamber assay. Cells were treated with these compounds for 48 h. 1×10^6 cells were suspended in 600 μl of serum-free medium supplemented with 0.2% BSA and placed in the upper compartment of the transwell chambers (Corning Costar Fischer Scientific Cat #07-200-158, Pittsburgh Pa.) coated with Matrigel (0.7 mg/ml). The lower compartment of the chamber was filled with 200 μl of serum medium and the cells were allowed to migrate for 24 h. After incubation, the cells were fixed and stained with Hema-3 and quantified as previously described (Mohanam et al. 1993). The migrated cells were imaged microscopically to determine the reduction in invasiveness induced by the compounds of this invention.

[2] = system: AKT, ERK and Pi3k in 4910 glioma cells; assay: Western blot analysis, 4910; type: cell-based, human
Procedure: (§2) Western blot analysis of 4910, 5310 and U87 glioma cells and MDAMB231 and ZR71 breast cancer cells in the presence of specified concentrations of compounds were assessed as per standard protocols. Cells were treated with AN019, AN024 or Temozolomide at the specified concentrations. 24 h after treatment, cells were collected and cell lysates extracted. Equal quantities of proteins were fractionated by SDS-PAGE. The fractionated proteins were blotted on to nylon membranes and immunoprobed for AKT, ERK and Pi3k. Breast cancer cell protein isolates were additionally immunoprobed for EGFR, ErbB1, ErbB2 and ErbB3.

[3] = system: MDAMB231 breast cancer cells; assay: In vitro angiogenic assay, MDA-MB-231 conditioned media on human dermal endothelial cells; type: cell-based; conditions: MDA-MB-231 cells
Procedure: (§3) The in vitro angiogenesis of 4910, 5310 and U87 glioma cells and MDAMB231 and ZR71 breast cancer cells in the presence of specified concentrations of compounds were determined as follows, cells (2×10^4/well) were seeded in 8-well chamber slides and were treated with various concentrations of test compounds. After a 24 h incubation period, the conditioned media was removed and added to a 4×10^4 human dermal endothelial cell (monolayer in 8-well chamber slides) and the human dermal endothelial cells were allowed to grow for 72 h. Cells were then fixed in 3.7% formaldehyde and stained with H&E and photographed.

U87 glioma cells [4] = assay: In vitro angiogenic assay, U87 conditioned media on human dermal endothelial cells; type: cell-based
Procedure: as §3

ZR71 breast cancer cells [5] = assay: Matrigel invasion assay (modified Boyden chamber), ZR-71; type: cell-based; conditions: ZR-71
Procedure: as §1

K562 = assay: ED50 (po) in leukemic mice (K562); conditions: po, mice
ZR71 breast cancer cells [6] = assay: In vitro angiogenic assay, ZR-71 conditioned media on human dermal endothelial cells; type: cell-based; conditions: ZR-71 cells; radiation not distinguished
Procedure: as §3

[7] = system: Baf3 murine leukemia cells (M351T); assay: Blast cell count in nude mice implanted with Baf3 M351T cells; type: in vivo; conditions: Baf3M351T; Imatinib 10 mg/kg, AN019 20 mg/kg, AN024 20 mg/kg, oral gavage or ip; day 42
From the text: (§4) Blood smears were obtained via the tail vein or via the femoral vein every 6th day and blast cells counted and graphically represented.
(§5) Abdominal swelling and decrease in activity was monitored daily, blood smear taken via the tail vein or the femoral vein every 6th day and H&E stained as per standard protocols. 42 days after implantation, mice were sacrificed and spleens harvested.
(§6) Nude mice were intraperitoneally implanted with Baf3 mutant cells (wt, T315I, M351T or E255K). […] Blood was drawn from the femoral vein or tail vein every 6th day and blast cell count determined and graphically represented.

4910 glioma cells [8] = assay: Matrigel invasion assay (modified Boyden chamber), 4910; type: cell-based, human; conditions: 4910
Procedure: as §1

[9] = system: 4910 human glioma xenograft cells; assay: Glioma radiation study, nude mice intracranially implanted with 4910 cells; type: in vivo
Procedure: Nude mice were intracranially implanted with 4910 human glioma xenograft cells (1×10^6 cells). Ten days after implantation mice were treated with AN019, AN024 or temozolomide with or without radiation (5 Gy/week). The experiment was terminated at day 40 post implantation.

4910 glioma cells [10] = assay: In vitro angiogenic assay, 4910 conditioned media on human dermal endothelial cells; type: cell-based; conditions: 4910 cells
Procedure: as §3

[11] = system: K562 luciferase expressing cells; assay: Leukemic survival study in nude mice implanted with K562 luciferase expressing cells; type: in vivo
From the text: K562 luciferase expressing cells were implanted intraperitoneally into nude mice; the mice were scanned using the xenogeny IVIS image station after ip injections of luciferin does determine implantations. Drug treatment was started as in previous studies day 15 after implantation. The animals were given treatment till day 42, after which drug treatment was stopped and survival of the animals determined as per the animal care regulations. […] Drug treatment was withdrawn on day 42 post implantation and survival of animals determined.

[12] = system: Baf3 murine leukemia cells (T315I); assay: Blast cell count in nude mice implanted with Baf3 T315I cells; type: in vivo; conditions: Baf3T315I; Imatinib 10 mg/kg, AN019 20 mg/kg, AN024 20 mg/kg, oral gavage or ip; day 42
From the text: as §4, §5, §6

[13] = system: AKT, ERK and Pi3k in ZR71 breast cancer cells; assay: Western blot analysis, ZR71; type: cell-based
Procedure: as §2

[14] = system: AKT, ERK and Pi3k in U87 glioma cells; assay: Western blot analysis, U87; type: cell-based
Procedure: as §2

5310 glioma cells [15] = assay: In vitro angiogenic assay, 5310 conditioned media on human dermal endothelial cells; type: cell-based; conditions: 5310 cells
Procedure: as §3

[16] = system: Baf3 murine leukemia cells (E255K); assay: Blast cell count in nude mice implanted with Baf3 E255K cells; type: in vivo; conditions: Baf3 E225K (E255K); Imatinib 10 mg/kg, AN019 20 mg/kg, AN024 20 mg/kg, oral gavage or ip; day 42
From the text: as §4, §5, §6

U87 glioma cells [17] = assay: Matrigel invasion assay (modified Boyden chamber), U87; type: cell-based; conditions: U87
Procedure: as §1

[18] = system: MDAMB231 breast cancer cells; assay: Matrigel invasion assay (modified Boyden chamber), MDA-MB-231; type: cell-based; conditions: MDA-MB-231
Procedure: as §1

[19] = not given; remark: listed apart in the source

Cc1ccc(NC(=O)c2cccc(S(=O)(=O)C(F)(F)F)c2)cc1Nc1nccc(-c2cccnc2)n1 [AN024]
±Change in invasion after radiation (5310 glioma cells [1]): +5% | AKT levels (Western blot) ([2]; 4910, after radiation): decrease in AKT levels was enhanced | AKT levels (Western blot) ([2]; 4910, without radiation): decrease in AKT levels | Inhibition of angiogenesis ([3]; after radiation): only a slight inhibition | Inhibition of angiogenesis ([3]; control condition (without radiation)): only a slight inhibition | Inhibition of angiogenesis (U87 glioma cells [4]; after radiation): increase in inhibition | Inhibition of angiogenesis (U87 glioma cells [4]; without radiation): significant retardation in angiogenesis | ±Change in invasion after radiation (ZR71 breast cancer cells [5]): −3% | ED50 (po) Mice (K562): 10 mg/kg | Inhibition of angiogenesis (ZR71 breast cancer cells [6]): complete inhibition of angiogenesis | MTD Mice: 500 mg/kg | Blast cell count in blood smears [7]: significant decrease in blast cell count | ±Change in invasion after radiation (4910 glioma cells [8]): −17% | Animals cured / no observable intracranial tumor ([9]; of 10 animals, with radiation (5 Gy/week), day 40 post implantation): 7 animals | Animals cured / complete absence of intracranial tumours ([9]; of 10 animals, without radiation, day 40 post implantation): 3 animals | Intracranial tumour size and appearance ([9]; with radiation (5 Gy/week)): well defined surgically respectable tumours | Intracranial tumour size and appearance ([9]; without radiation): tumours were well defined and not showing diffuse edges | Inhibition of angiogenesis (4910 glioma cells [10]; after radiation): significant inhibition of angiogenesis | Inhibition of angiogenesis (4910 glioma cells [10]; without radiation): significant inhibition of angiogenesis | Blast cell count from blood smears, effectiveness after withdrawal of drug treatment ([11]; drug treatment withdrawn on day 42): showed effectiveness after withdrawal of drug treatment | Animals showing no signs of leukemia / complete absence of leukemic symptoms ([11]; of 10 animals, drug withdrawn day 42, AN024 on day 55): 8 animals | Mortality ([11]; treatment day 15 to day 42, then withdrawn, 10 animals): mortality on day 38 | Blast cell count in blood smears [12]: significant decrease in blast cell count | AKT levels (Western blot) ([13]; ZR71, after radiation): decrease in AKT expression | AKT levels (Western blot) ([13]; ZR71, unirradiated): did not show any significant change | PI3k levels (Western blot) ([13]; ZR71, with radiation): decrease in PI3k levels | ERK levels (Western blot) ([14]; U87, after radiation): decrease was enhanced | ERK levels (Western blot) ([14]; U87, without radiation): slight decrease in ERK levels | Inhibition of angiogenesis (5310 glioma cells [15]; after radiation): angiogenesis further inhibited | Inhibition of angiogenesis (5310 glioma cells [15]; control conditions (without radiation)): inhibition of angiogenesis | Blast cell count in blood smears [16]: significant decrease in blast cell count | ±Change in invasion after radiation (U87 glioma cells [17]): −24% | ±Change in invasion after radiation [18]: +4% | LD50 (po) Mice [19]: 1440 mg/kg
